Assay results from patent US12295925B2, “Treatment of neurofibromatosis type 1 (NF1) associated plexiform neurofibromas (PN) in pediatric patients with mirdametinib” (SpringWorks Therapeutics, Inc., priority 2022, dated 2025).

System: patients >2 and <25 years with brain cancer
Assay: Phase I/II trial of single agent mirdametinib in children, adolescents and young adults with brain cancer
Type: in vivo, human
Experimental: Example 1: Phase I/II Evaluation of Single Agent Mirdametinib, a Brain-Penetrant MEK1/2 Inhibitor, for the Treatment of Children, Adolescents, and Young Adults with Brain Cancer A multi-arm phase I/II trial of mirdametinib is to be conducted in patients>2 and <25 years with brain cancer. Phase I requires participants have no prior exposure to MEK inhibitors and recurrent/progressive disease with biopsy-proven evidence of MAPK pathway activation. Three escalating dose levels (2 mg/m^2/dose BID, 2.5 mg/m^2/dose BID and 3 mg/m^2/dose BID) are planned using a rolling 6 design. The median age enrolled in the study is 10 years old (3-21).

SMILES: O=C(NOC[C@H](O)CO)c1ccc(F)c(F)c1Nc1ccc(I)cc1F (single isomer, unassigned) [mirdametinib]
- dose-limiting toxicities (all three dose levels (2, 2.5 and 3 mg/m^2/dose BID), rolling 6 design, patients with brain cancer, median age 10 years): No dose-limiting toxicities
- clinical activity (overall assessment) (dosed continuously in patients with brain cancer): clinically promising
